Two compounds from patent publication US9815794B2, “Inhibition of bacterial biofilms and microbial growth with imidazole derivatives” (North Carolina State University, priority 2011, dated 2017) can be followed below.

Each structure is given as a SMILES string. Values after ≈ are worked out from the molar mass of the structure shown. Read-outs that look alike come from different tables or passages of the source.

What is called MIC is the lowest concentration found to suppress growth. The low end stands for greater potency, the high end for weaker potency. Broadly, the EC50 is the concentration needed to bring the measured effect to its halfway point.

In data set [1] the test system is MSSA. The experiment in a line: Broth microdilution MIC. It counts as cell-based, S. aureus. As to conditions: Staphylococcus aureus. As to the method:
(§1) Once it was determined that this specific 4,5-disubstitution pattern imparted microbicidal activity onto the 2-AI framework, this activity was quantified by measuring the MIC of each derivative against a variety of representative pathogenic bacterial strains using the microdilution protocol (CSLI, Performance Standards for Antimicrobial Suceptibility Testing; Nineteenth Informational Supplement, Clinical and Laboratory Standards Institute, Wayne, Pa., 2009). E. coli, MDRAB, P. aeruginosa, MRSA, MSSA, S. epidermidis and VRE were used for initial evaluation. From this screen, compound 15 was determined to be the lead compound and had MIC values (μg/mL) of 2, 2, 1, 0.5, 0.25, and 1 against E. coli, MDRAB, MRSA, VRE, S. Epidermidis and MSSA.
(§2) S. aureus (ATCC #29213), S. epidermidis (ATCC #29886), MRSA (ATCC # BAA-44), MDRAB (ATCC # BAA-1605), vancomycin resistant Enterococcus faecium (VRE) (ATCC #51559) and E. coli (ATCC #35695) were obtained from the ATCC. Mechanically difibrinated sheep blood (DSB100) was obtained from Hemostat Labs. Mueller-Hinton medium was purchased from Fluka (#70192).
(§3) Broth Microdilution Method for MIC Determination.
In general terms: Broth dilution looks for growth in wells or tubes with falling amounts of substance.

In data set [2] the test system is VRE. The experiment in a line: Broth microdilution MIC. It counts as cell-based, vancomycin resistant Enterococcus faecium. As to conditions: Enterococcus. As to the method:
as §1, §2, §3

Data set [3] deals with MSSA. As to the kind of experiment: Dispersion of pre-formed biofilms. The data set is classed as cell-based, S. aureus. The following applies: Staphylococcus aureus, read-out: EC50, 50% dispersion of a pre-formed biofilm. The procedure:
(§4) The ability of 15 and 19 to disperse pre-formed biofilms was also determined for all of the aforementioned bacterial strains (both marine and terrestrial). To quantify this effect, the EC50 value of each compound against each bacterial strain was determined, where EC50 is defined as the concentration of compound that elicits 50% dispersion of a pre-formed biofilm. Both compounds are able to disperse pre-formed biofilms at low micromolar concentrations. These concentrations are also microbicidal to planktonic bacteria. […]
(§5) Preformed Biofilms: Dispersion assays were performed by taking an overnight culture of bacterial strain and subculturing it at an OD600 of 0.01 into the necessary medium (brain heart infusion for E. faecium, tryptic soy broth with a 0.5% glucose supplement (TSBG) for MRSA, S. aureus and S. epidermidis, Luria-Bertani (LB) medium for MDRAB and E. coli, and tryptic soy broth with a 0.5% glucose supplement and a 3.0% NaCl supplement (TGN) for R. salexigens, V. cholerae, V. vulnificus and L. anguillarum.) The resulting bacterial suspension was aliquoted (100 μL) into the wells of a 96-well PVC microtiter plate. […] Biofilm dispersion was quantitated by measuring the OD540 of each well in which a negative control lane wherein no biofilm was formed served as a background and was subtracted out.

Data set [4] deals with E. coli. The experiment in a line: Dispersion of pre-formed biofilms. The following applies: Escherichia coli, read-out: EC50, 50% dispersion of a pre-formed biofilm. The data set is classed as cell-based. The procedure: (§6) The ability of 15 and 19 to disperse pre-formed biofilms was also determined for all of the aforementioned bacterial strains (both marine and terrestrial). To quantify this effect, the EC50 value of each compound against each bacterial strain was determined, where EC50 is defined as the concentration of compound that elicits 50% dispersion of a pre-formed biofilm. Both compounds are able to disperse pre-formed biofilms at low micromolar concentrations. These concentrations are also microbicidal to planktonic bacteria.
(§7) Procedure to Determine the Dispersal Effect of Test Compounds on E. faecium (VRE), MRSA, S. aureus, S. epidermidis, E. coli, R. salexigens, V. cholerae, V. vulnificus and L. anguillarum
(§8) Preformed Biofilms: Dispersion assays were performed by taking an overnight culture of bacterial strain and subculturing it at an OD600 of 0.01 into the necessary medium (brain heart infusion for E. faecium, tryptic soy broth with a 0.5% glucose supplement (TSBG) for MRSA, S. aureus and S. epidermidis, Luria-Bertani (LB) medium for MDRAB and E. coli, and tryptic soy broth with a 0.5% glucose supplement and a 3.0% NaCl supplement (TGN) for R. salexigens, V. cholerae, V. vulnificus and L. anguillarum.) The resulting bacterial suspension was aliquoted (100 μL) into the wells of a 96-well PVC microtiter plate. Plates were then wrapped in GLAD Press n' Seal® followed by an incubation under stationary conditions at 37° C. to establish the biofilms. After 24 h, the medium was discarded from the wells and the plates were washed thoroughly with water. Stock solutions of predetermined concentrations of the test compound were then made in the necessary medium. These stock solutions were aliquoted (100 μL) into the wells of the 96-well PVC microtiter plate with the established biofilms. Medium alone was added to a subset of the wells to serve as a control. Sample plates were then incubated for 24 h at 37° C. After incubation, the medium was discarded from the wells and the plates were washed thoroughly with water. Plates were then stained with 100 μL of 0.1% solution of crystal violet (CV) and then incubated at ambient temperature for 30 min. Plates were washed with water again and the remaining stain was solubilized with 200 μL of 95% ethanol. A sample of 125 μL of solubilized CV stain from each well was transferred to the corresponding wells of a polystyrene microtiter dish. Biofilm dispersion was quantitated by measuring the OD540 of each well in which a negative control lane wherein no biofilm was formed served as a background and was subtracted out.

In data set [5] the test system is MDRAB. As to the kind of experiment: Dispersion of pre-formed biofilms. The data set is classed as cell-based. As to conditions: read-out: EC50, 50% dispersion of a pre-formed biofilm. The procedure:
as §6, §7, §8

The test system of data set [6] is S. epidermidis. As to the kind of experiment: Dispersion of pre-formed biofilms. The data set is classed as cell-based. As to conditions: Staphylococcus epidermidis, read-out: EC50, 50% dispersion of a pre-formed biofilm. As to the method: as §6, §7, §8
The test system of data set [7] is V. cholerae. As to the kind of experiment: Dispersion of pre-formed biofilms. The following applies: Vibrio cholerae, read-out: EC50, 50% dispersion of a pre-formed biofilm. The data set is classed as cell-based. As to the method: as §6, §7, §8
For data set [8], the system named is V. vulnificus. As to the kind of experiment: Dispersion of pre-formed biofilms. As to conditions: Vibrio vulnificus, read-out: EC50, 50% dispersion of a pre-formed biofilm. The data set is classed as cell-based. As to the method:
as §6, §7, §8

The subject of data set [9] is VRE. As to the kind of experiment: Dispersion of pre-formed biofilms. The data set is classed as cell-based, E. faecium (VRE). As to conditions: Enterococcus, read-out: EC50, 50% dispersion of a pre-formed biofilm. As to the method: as §4, §5
The test system of data set [10] is L. anguillarum. As to the kind of experiment: Dispersion of pre-formed biofilms. The data set is classed as cell-based, Listonella anguillarum. As to conditions: Vibrio anguillarum, read-out: EC50, 50% dispersion of a pre-formed biofilm. As to the method:
as §4, §5

Data set [11] concerns R. salexigens. The experiment in a line: Dispersion of pre-formed biofilms. The data set is classed as cell-based, Rhodospirillum salexigens. As to conditions: Rhodothalassium salexigens, read-out: EC50, 50% dispersion of a pre-formed biofilm. As to the method: as §4, §5
Data set [12] has as its system difibrinated sheep's blood. As to the kind of experiment: Red blood cell hemolysis assay. The data set is classed as cell-based. The procedure: Once the anti-biofilm and antibacterial properties of each 2-AI derivative had both been evaluated, the hemolytic potential of compounds 15, 19 and 1 was assessed (Liu et al., Antimicrob. Agents. Ch., 2007, 51: 597-603). […] Hemolysis was measured using difibrinated sheep's blood. Hemolytic potential was quantified by determining the HD50 of compound 15, 19 and 1, where HD50 is defined as the concentration that elicits 50% hemolysis. From this assay, we determined that the HD50 of compound 15, 19 and 1 were 66 μM, 61 μM and >400 μM. This corresponds to 22 and 21 μg/mL for compounds 15 and 19.
Red Blood Cell Hemolysis Assay.
Hemolysis assays were performed on mechanically difibrinated sheep blood (Hemostat Labs: DSB100). 1.5 mL of blood was placed into a microcentrifuge tube and centrifuged at 10000 rpm for ten minutes. The supernatant was removed and then the cells were resuspended with 1 mL of phosphate-buffered saline (PBS). The suspension was centrifuged, the supernatant was removed and cells resuspended two more times. The final cell suspension was then diluted tenfold. Test compound solutions were made in PBS and then added to aliquots of the tenfold suspension dilution. PBS alone was used as a negative control and as a zero hemolysis marker whereas a 1% Triton X sample was used as a positive control and the 100% lysis marker. Samples were then placed in an incubator at 37° C. while being shaken at 200 rpm for one hour. After one hour, the samples were transferred to microcentrifuge tubes and then centrifuged at 10000 rpm for ten minutes. The resulting supernatant was diluted by a factor of 40 in distilled water. The absorbance of the supernatant was measured with a UV spectrometer at a 540 nm wavelength.

In the case of `CCCCCCc1[nH]c(N)nc1CCCCCc1ccccc1` [Compound 19, 5-hexyl-4-(5-phenylpentyl)-1H-imidazol-2-amine], the MIC in data set [1] amounted to 1 µg/mL (≈ 3.19 µM); in data set [2], 0.5 µg/mL (≈ 1.59 µM). Further, the EC50 in data set [3] was 26.1 ± 0.7 µM; in data set [4], 42.5 ± 6.1 µM; in [5], 11.1 ± 0.1 µM; in data set [6], 17.7 ± 0.3 µM; in data set [7], 14.7 ± 1.8 µM; in data set [8] it was 3.2 ± 1.3 µM. Also, the results for the EC50 in [9], in data set [10] and in [11] were 14.1 ± 0.2 µM, 13.8 ± 1.5 µM and 17.6 ± 3.2 µM, respectively. Besides, the “HD50 (concentration that elicits 50% hemolysis)” value in [12] is 61 µM; in data set [12] (converted from μM) it was 21 µg/mL.

For the compound `CCCCCc1[nH]c(N)nc1CCCCCc1ccccc1` [Compound 15, 5-pentyl-4-(5-phenylpentyl)-1H-imidazol-2-amine], the MIC in data set [1] stood at 1 µg/mL (≈ 3.34 µM); in [2] it was 0.5 µg/mL (≈ 1.67 µM). The 50% effective concentration (EC50) was determined as 19.9 ± 3.3 µM in [3]; 12 ± 1.6 µM in data set [4]; 7.1 ± 1.3 µM in data set [5]; 24.7 ± 5.8 µM in [6]; 7.12 ± 0.3 µM in data set [7]; 18.1 ± 2.3 µM in [8]. In addition, the 50% effective concentration (EC50) is 17.3 ± 2.3 µM in data set [9], 14.7 ± 1.7 µM in data set [10] and 6.6 ± 1.1 µM in [11]. The “HD50 (concentration that elicits 50% hemolysis)” value in [12] worked out at 66 µM; in [12] (converted from μM), 22 µg/mL.
